IC50 data for one molecule are collected here from BindingDB's records for patent US9018255 (Instytut Chemii Organicznej Polskiej Akademii Nauk, 2015).

The target in the assay is T1, Thioredoxin (Homo sapiens, UniProt P10599).
T1 sequence (P10599 whole entry): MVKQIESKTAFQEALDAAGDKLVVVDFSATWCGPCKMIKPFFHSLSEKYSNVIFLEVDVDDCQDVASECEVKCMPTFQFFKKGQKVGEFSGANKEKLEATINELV
Briefly: In vitro Assay. The following applies: pH 7.6. The procedure:
The method of determining thioredoxin activity is based on the reduction of insulin by thioredoxin. Thioredoxin is reconstituted is by thioredoxin reductase, with NADPH. The resulting free thiol -SH groups react with 5,5′-dithiobis-2-nitrobenzoic acid (DTNB). The termination of the reaction results in the formation of a […]. […] The reaction was performed at 37° C. over 30 min. in a buffer containing 50 mM Tris-HCl and 20 mM EDTA at a pH of 7.6.

Usually IC50 stands for the concentration at which inhibition is half-maximal. A higher IC50 goes with lower potency. In turn, `C=C(COC(=O)c1c(C(F)(F)F)cccc1C(F)(F)F)C(=O)NCc1ccccc1` [US9018255, 8a] showed an IC50 of 8.6 µM.
